Data on ten compounds can be found in patent US9586961B2, “Homopiperazine derivatives as protein tyrosine kinase inhibitors and pharmaceutical use thereof” (LEO PHARMA A/S, priority 2010, dated 2017).

A word on the EC50: it is the midpoint of the concentration-response curve.

Holding throughout (assay type): biochemical
The target of one assay is T1, JAK3 (Homo sapiens, UniProt P52333).
T1 construct: All four purified enzymes contain only the catalytic domain; His (N); purchased Carna Biosciences, Inc; host or cells: baculovirus expression system
Briefly: JAK3 kinase assay (HTRF, inhibition of phosphorylation of a synthetic peptide). The settings on record: catalytic domain, His-tag; 2 μM ATP (Km); read-out: JAK3 kinase inhibitory activity (EC50). The method, boiled down: (§1)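 Baculovirus-expressed human catalytic domains (GST-JAK1, GST-TYK2, His-JAK2, His-JAK3) phosphorylated 1 μM TK substrate-biotin at ATP Km (JAK1 7 μM, JAK2 4 μM, JAK3 2 μM, TYK2 13 μM) in pH 7.0 Hepes for 20-30 min at RT, 0.75% DMSO. EDTA stop, then overnight streptavidin-XL665/cryptate-antibody detection and HTRF read.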
In general terms: Time-resolved FRET reads energy transfer from a long-lived donor to a nearby acceptor.

The target in a further assay is T2, JAK2 (Homo sapiens, UniProt O60674).
T2 construct: All four purified enzymes contain only the catalytic domain; His (N); purchased Carna Biosciences, Inc; host or cells: baculovirus expression system
Briefly: JAK2 kinase assay (HTRF, inhibition of phosphorylation of a synthetic peptide). The note with it: catalytic domain, His-tag; 4 μM ATP (Km); read-out: JAK2 kinase inhibitory activity (EC50). The method, boiled down: as §1

A further assay deals with T3, JAK1 (Homo sapiens, UniProt P23458).
T3 construct: JAK1 (aa 850-1154) and TYK2 (aa 871-1187) are expressed with an N-terminally fused GST-tag; GST (N); purchased Carna Biosciences, Inc; host or cells: baculovirus expression system
Briefly: JAK1 kinase assay (HTRF, inhibition of phosphorylation of a synthetic peptide). The settings on record: catalytic domain aa 850-1154, GST-tag; 7 μM ATP (Km); read-out: JAK1 kinase inhibitory activity (EC50). The method, boiled down:
as §1

A further assay has as its target T4, TYK2 (Homo sapiens, UniProt P29597).
T4 construct: JAK1 (aa 850-1154) and TYK2 (aa 871-1187) are expressed with an N-terminally fused GST-tag; GST (N); purchased Carna Biosciences, Inc; host or cells: baculovirus expression system
T4 sequence (P29597 871-1187): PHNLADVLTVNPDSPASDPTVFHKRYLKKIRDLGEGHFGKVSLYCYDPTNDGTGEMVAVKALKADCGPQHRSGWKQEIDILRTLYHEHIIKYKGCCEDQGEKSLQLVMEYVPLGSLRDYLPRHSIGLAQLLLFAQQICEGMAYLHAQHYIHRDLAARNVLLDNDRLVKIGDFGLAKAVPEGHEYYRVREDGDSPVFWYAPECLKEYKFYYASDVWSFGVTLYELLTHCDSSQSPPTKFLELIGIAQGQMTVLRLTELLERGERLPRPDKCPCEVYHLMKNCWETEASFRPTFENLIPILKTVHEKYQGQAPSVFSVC
Briefly: TYK2 kinase assay (HTRF, inhibition of phosphorylation of a synthetic peptide). The settings on record: catalytic domain aa 871-1187, GST-tag; 13 μM ATP (Km); read-out: TYK2 kinase inhibitory activity (EC50). The method, boiled down:
as §1

T2 sequence (O60674 849-1124 limits assumed): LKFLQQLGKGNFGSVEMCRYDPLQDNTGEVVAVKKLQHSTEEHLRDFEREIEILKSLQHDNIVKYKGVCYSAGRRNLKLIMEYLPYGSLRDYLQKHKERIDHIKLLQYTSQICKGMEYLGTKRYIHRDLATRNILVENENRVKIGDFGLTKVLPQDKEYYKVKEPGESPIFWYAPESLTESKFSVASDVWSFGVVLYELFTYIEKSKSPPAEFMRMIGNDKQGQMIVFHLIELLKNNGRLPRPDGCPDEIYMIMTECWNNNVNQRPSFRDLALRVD
T1 sequence (P52333 822-1111 limits assumed): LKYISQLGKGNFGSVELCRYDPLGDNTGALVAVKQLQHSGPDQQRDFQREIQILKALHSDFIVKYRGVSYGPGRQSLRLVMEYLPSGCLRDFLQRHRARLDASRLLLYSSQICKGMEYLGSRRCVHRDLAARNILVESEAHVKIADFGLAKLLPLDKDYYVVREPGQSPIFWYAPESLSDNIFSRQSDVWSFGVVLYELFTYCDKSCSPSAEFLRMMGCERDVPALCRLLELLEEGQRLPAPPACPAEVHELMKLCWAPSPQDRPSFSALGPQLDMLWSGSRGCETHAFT
T3 sequence (P23458 850-1154): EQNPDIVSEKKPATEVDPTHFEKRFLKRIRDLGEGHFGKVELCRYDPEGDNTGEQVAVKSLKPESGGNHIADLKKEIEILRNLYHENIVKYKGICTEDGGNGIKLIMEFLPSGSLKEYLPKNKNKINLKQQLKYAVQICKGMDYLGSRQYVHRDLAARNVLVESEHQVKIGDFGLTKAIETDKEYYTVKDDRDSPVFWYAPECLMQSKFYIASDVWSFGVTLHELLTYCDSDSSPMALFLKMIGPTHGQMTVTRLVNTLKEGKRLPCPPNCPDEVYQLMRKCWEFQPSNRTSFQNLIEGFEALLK

Regarding `N#Cc1ccc(CCC(=O)N2CCN(c3ncnc4[nH]ccc34)CC3(CC3)C2)cc1` [Example 115, 4-[3-oxo-3-[5-(7H-pyrrolo[2,3-d]pyrimidin-4-yl)-5,8-diazaspiro[2.6]nonan-8-yl]propyl]benzonitrile], the EC50 on JAK3 was less than 100 nM; at JAK2, less than 100 nM; at JAK1 it was less than 100 nM; on TYK2, 100 to 1000 nM.

For `N#Cc1cccc(CCC(=O)N2CCN(c3ncnc4[nH]ccc34)CC3(CC3)C2)c1` [Example 116, 3-[3-oxo-3-[5-(7H-pyrrolo[2,3-d]pyrimidin-4-yl)-5,8-diazaspiro[2.6]nonan-8-yl]propyl]benzonitrile], the EC50 was 100 to 1000 nM on JAK3, less than 100 nM at JAK2, 100 to 1000 nM at JAK1 and more than 1000 nM at TYK2.

Regarding `N#Cc1csc(C(=O)N2CCCN(c3ncnc4[nH]ccc34)CC23CC3)c1` [Example 119, 5-[5-(7H-pyrrolo[2,3-d]pyrimidin-4-yl)-5,9-diazaspiro[2.6]nonane-9-carbonyl]thiophene-3-carbonitrile], the EC50 is 100 to 1000 nM at JAK3, less than 100 nM at JAK2, less than 100 nM on JAK1 and 100 to 1000 nM on TYK2.

On to `N#Cc1ccc(C(=O)N2CCCN(c3ncnc4[nH]ccc34)CC23CC3)s1` [Example 120, 5-[5-(7H-pyrrolo[2,3-d]pyrimidin-4-yl)-5,9-diazaspiro[2.6]nonane-9-carbonyl]thiophene-2-carbonitrile], for which the EC50 at JAK3 is less than 100 nM; at JAK2 it was less than 100 nM; at JAK1 it was less than 100 nM; on TYK2, 100 to 1000 nM.

For the compound `O=C(Cc1ccc(Cl)cc1)N1CCN(c2ncnc3[nH]ccc23)CC2(CC2)C1` [Example 125, 2-(4-chlorophenyl)-1-[5-(7H-pyrrolo[2,3-d]pyrimidin-4-yl)-5,8-diazaspiro[2.6]nonan-8-yl]ethanone], the EC50 on JAK3 is 100 to 1000 nM; at JAK2, less than 100 nM; on JAK1 it was less than 100 nM; on TYK2 it was 100 to 1000 nM.

On to `Cc1cc(C(=O)N2CCCN(c3ncnc4[nH]ccc34)CC23CC3)no1` [Example 141], for which the EC50 on JAK3 is 100 to 1000 nM; on JAK2, less than 100 nM; at JAK1 it was less than 100 nM; at TYK2, 100 to 1000 nM.

With `O=C(c1csnn1)N1CCCN(c2ncnc3[nH]ccc23)CC12CC2` [Example 142, [5-(7H-pyrrolo[2,3-d]pyrimidin-4-yl)-5,9-diazaspiro[2.6]nonan-9-yl]-(thiadiazol-4-yl)methanone], the EC50 at JAK3 is 100 to 1000 nM; on JAK2, less than 100 nM; at JAK1 it was less than 100 nM; on TYK2, 100 to 1000 nM.

On to `O=C(c1ccon1)N1CCCN(c2ncnc3[nH]ccc23)CC12CC2` [Example 153, isoxazol-3-yl-[5-(7H-pyrrolo[2,3-d]pyrimidin-4-yl)-5,9-diazaspiro[2.6]nonan-9-yl]methanone], for which the EC50 is 100 to 1000 nM at JAK3, less than 100 nM on JAK2, less than 100 nM at JAK1 and 100 to 1000 nM at TYK2.

In the case of `O=C(Cc1ccc(F)cc1)N1CCN(c2ncnc3[nH]ccc23)CC2(CC2)C1` [Example 158, 2-(4-fluorophenyl)-1-[5-(7H-pyrrolo[2,3-d]pyrimidin-4-yl)-5,8-diazaspiro[2.6]nonan-8-yl]ethanone], the EC50 at JAK3 was 100 to 1000 nM; at JAK2, less than 100 nM; on JAK1, less than 100 nM; at TYK2, 100 to 1000 nM.

Consider `O=C(c1ccsn1)N1CCCN(c2ncnc3[nH]ccc23)CC12CC2` [Example 201, isothiazol-3-yl-[5-(7H-pyrrolo[2,3-d]pyrimidin-4-yl)-5,9-diazaspiro[2.6]nonan-9-yl]methanone], for which the EC50 at JAK3 was 100 to 1000 nM; on JAK2, less than 100 nM; on JAK1 it was less than 100 nM; on TYK2, 100 to 1000 nM.
